Experimental data taken from ChEMBL document CHEMBL1125886, “Interphenylene 7-oxabicyclo[2.2.1]heptane thromboxane A2 antagonists. Semicarbazone omega-chains” (J Med Chem, 1991).

Key:
Homo sapiens [1] = species on record: Homo sapiens; assay: The compound was tested for inhibition of arachidonic acid(800 uM) induced platelet aggregation in human platelet rich plasma.; assay type: functional; settings: read-out: I50
Homo sapiens [2] = species on record: Homo sapiens; assay: The compound was tested for inhibition of U-46,619(10 uM) induced platelet aggregation in human platelet rich plasma(PRP).; assay type: functional; settings: read-out: I50
Thromboxane A2 receptor = target: T1, Thromboxane A2 receptor (Homo sapiens, UniProt P21731); assay: The compound was tested for inhibition of specific binding of [3H]-SQ 29,548 to thromboxane A2 receptor in human platelet membranes; assay type: cell membranes
T1 sequence (P21731 whole entry): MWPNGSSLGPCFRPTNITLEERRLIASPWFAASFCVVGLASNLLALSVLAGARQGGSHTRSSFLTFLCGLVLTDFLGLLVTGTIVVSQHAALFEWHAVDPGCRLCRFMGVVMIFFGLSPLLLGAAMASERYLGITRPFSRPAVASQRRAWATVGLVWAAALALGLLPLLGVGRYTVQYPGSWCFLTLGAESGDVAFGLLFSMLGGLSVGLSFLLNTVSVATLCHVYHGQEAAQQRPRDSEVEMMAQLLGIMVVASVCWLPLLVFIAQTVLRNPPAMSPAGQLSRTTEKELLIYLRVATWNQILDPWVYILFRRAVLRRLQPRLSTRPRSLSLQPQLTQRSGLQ

Mus musculus [3] = assay: The compound was tested in vivo for duration of action after 0.2 mg/kg peroral administration to protect from U-46,619-induced(2.0 mg/kg, iv) death in mice; assay type: ADME, organism-based; design: dose 0.2 mg/kg, route oral; settings: po
Mus musculus [4] = assay: The compound was tested in vivo for duration of action after 10 mg/kg peroral administration to protect from U-46,619-induced(2.0 mg/kg, iv) death in mice; assay type: ADME, organism-based; design: dose 10 mg/kg, route oral; settings: po

Structure (SMILES)	IC50 (Homo sapiens [1]) [nM]	IC50 (Homo sapiens [2]) [nM]	Kd (Thromboxane A2 receptor) [nM]	T50 (Mus musculus [3]) [h]	T50 (Mus musculus [4]) [h]
O=C(O)CCC/C=C\CC1C2CCC(O2)C1/C=N/NC(=O)Nc1ccccc1 (stereo not drawn)	230	710	39.4		
O=C(O)CCCc1ccccc1CC1C2CCC(O2)C1/C=N/NC(=O)Nc1ccccc1 (stereo not drawn)	12	72	21.1	8.7	
O=C(O)CCc1ccccc1CC1C2CCC(O2)C1/C=N/NC(=O)Nc1ccccc1 (stereo not drawn)	3	12	1	16	
O=C(O)COc1ccccc1CC1C2CCC(O2)C1/C=N/NC(=O)Nc1ccccc1 (stereo not drawn)	15	46	6	3.6	
O=C(O)Cc1cccc(CC2C3CCC(O3)C2/C=N/NC(=O)Nc2ccccc2)c1 (stereo not drawn)	370	4600	171	1.7	8.3

More lines, main results first:

IC50 (Homo sapiens [1]) [nM]	Structure (SMILES)	IC50 (Homo sapiens [2]) [nM]	Kd (Thromboxane A2 receptor) [nM]	T50 (Mus musculus [3]) [h]	T50 (Mus musculus [4]) [h]
688000	O=C(O)Cc1ccc(CCC2C3CCC(O3)C2/C=N/NC(=O)Nc2ccccc2)cc1 (stereo not drawn)				
7200	O=C(O)COc1cccc(CC2C3CCC(O3)C2/C=N/NC(=O)Nc2ccccc2)c1 (stereo not drawn)	25000	1200		
30000	O=C(O)Cc1cccc(CCC2C3CCC(O3)C2/C=N/NC(=O)Nc2ccccc2)c1 (stereo not drawn)	133000	1070		
310000	O=C(O)Cc1ccc(CC2C3CCC(O3)C2/C=N/NC(=O)Nc2ccccc2)cc1 (stereo not drawn)				
